“Also recorded” adds a separate entry of the source.
Key:
Type in all cases: physicochemical
[1] = chemical stability (thermo stability and light stability); conditions: compared with omeprazole form B
[2] = thermodynamic stability of crystal forms
hygroscopicity = assay: hygroscopicity
[3] = compared with omeprazole form B, especially at room temperature

| chemical stability, such as thermo stability and light stability [1] | hygroscopicity (absolute statement) (hygroscopicity) | hygroscopicity (hygroscopicity; [3]) | Compound | thermodynamic stability [2, 3] | conversion into the other crystal form ([2]; under certain conditions) |
| --- | --- | --- | --- | --- | --- |
| better chemical stability | essentially non-hygroscopic | less hygroscopic than omeprazole form B | COc1ccc2[nH]c([S+]([O-])Cc3ncc(C)c(OC)c3C)nc2c1 (centres unmarked) [Omeprazole form A, 5-methoxy-2-[[(4-methoxy-3,5-dimethyl-2-pyridinyl)methyl]sulfinyl]-1H-benzimidazole] | thermodynamically more stable; also recorded: thermo-dynamically more stable than omeprazole form B |  |
|  |  |  | COc1ccc2[nH]c([S+]([O-])Cc3ncc(C)c(OC)c3C)nc2c1 (centres unmarked) [Omeprazole form B, 5-methoxy-2-[[(4-methoxy-3,5-dimethyl-2-pyridinyl)methyl]sulfinyl]-1H-benzimidazole, reference compound] |  | completely or partly, be converted into omeprazole form A |

Source: US20020156284A1, “Crystalline form of omeprazole” (priority 1998, published 2002)
